In patent US20090076044A1, “VEGFR INHIBITORS CONTAINING A ZINC BINDING MOIETY” (priority 2007, published 2009):

What was measured:
human c-Kit = biological target: T1, human c-Kit (Homo sapiens, UniProt P10721); experiment: c-Kit kinase assay (HTScan Receptor Kinase Assay Kit, DELFIA); type: biochemical; settings: 200 μM ATP
T1 construct: human c-Kit (Thr544-Val976); purchased Cell Signaling Technologies; host or cells: baculovirus expression system
Experimental: (f) An In Vitro Assay which Determines the Ability of a Test Compound to Inhibit c-Kit Kinase.
The ability of compounds to inhibit c-Kit tyrosine kinase activity was assayed using HTScan™ Receptor Kinase Assay Kits (Cell Signaling Technologies, Danvers, Mass.). c-Kit tyrosine kinase is obtained in partially purified form from GST-kinase fusion protein which is produced using a baculovirus expression system from a construct expressing human c-Kit (Thr544-Val976) with an amino-terminal GST tag. The protein was purified by one-step affinity chromatography using glutathione-agarose. An anti-phosphotyrosine monoclonal antibody, P-Tyr-100, is used to detect phosphorylation of biotinylated substrate peptide KDR (Tyr996). Enzymatic activity was tested in 60 mM HEPES, 5 mM MgCl2 5 mM MnCl2 200 μM ATP, 1.25 mM DTT, 3 μM Na3VO4, 1.5 mM peptide, and 50 ng c-Kit. Bound antibody was detected using the DELFIA system (PerkinElmer, Wellesley, Mass.) consisting of DELFIA® Europium-labeled Anti-mouse IgG (PerkinElmer, #AD0124), DELFIA® Enhancement Solution (PerkinElmer, #1244-105), and a DELFIA® Streptavidin coated, 96-well Plate (PerkinElmer, AAAND-0005). Fluorescence was measured on a WALLAC Victor 2 plate reader and reported as relative fluorescence units (RFU). Data were plotted using GraphPad Prism (v4.0a) and IC50's were calculated using a sigmoidal dose response curve fitting algorithm.
Test compounds were dissolved in dimethylsulphoxide (DMSO) to give a 20 mM working stock concentration. Each assay was set up as follows: 100 μl of 10 mM ATP is added to 1.25 ml 6 mM substrate peptide. The mixture was diluted with dH20 to 2.5 ml to make 2×ATP/substrate cocktail ([ATP]=[…], [substrate]=3 mM). The enzyme was immediately transferred from −80° C. to ice. The enzyme was allowed to thaw on ice. The mixture was microcentrifuged briefly at 4° C. to bring liquid to the bottom of the vial and returned immediately to ice. 10 μl of DTT (1.25 mM) was added to 2.5 ml of 4× HTScan™ Tyrosine Kinase Buffer (240 mM HEPES pH 7.5, 20 mM MgCl2, 20 mM MnCl, 12 mM NaVO3) to make DTT/Kinase buffer. 1.25 ml of DTT/Kinase buffer was transferred to enzyme tube to make a 4× reaction cocktail ([enzyme]=4 ng/μL in 4× reaction cocktail). 12.5 μl of the 4× reaction cocktail was incubated with 12.5 μl/well of prediluted compound of interest (usually around 10 μM) for 5 minutes at room temperature. 25 μl of 2×ATP/substrate cocktail is added to 25 μl/well preincubated reaction cocktail/compound. The reaction plate was incubated at room temperature for 30 minutes. 50 μl/well Stop Buffer (50 mM EDTA, pH 8) was added to stop the reaction. […] 615 nm fluorescence emission is detected using an appropriate Time-Resolved Plate Reader.

human PDGFR-beta = biological target: T2, human PDGFR-beta (Homo sapiens, UniProt P09619); experiment: PDGFR-beta radioisotope kinase assay; type: biochemical; settings: 100 μM ATP; for IC50: read-out: PDGFRb IC50
T2 construct: fragment (amino acids 558-1106) amino-terminally fused to 6-histidine; 6xHis (N); made in house
T2 sequence (P09619 558-1106): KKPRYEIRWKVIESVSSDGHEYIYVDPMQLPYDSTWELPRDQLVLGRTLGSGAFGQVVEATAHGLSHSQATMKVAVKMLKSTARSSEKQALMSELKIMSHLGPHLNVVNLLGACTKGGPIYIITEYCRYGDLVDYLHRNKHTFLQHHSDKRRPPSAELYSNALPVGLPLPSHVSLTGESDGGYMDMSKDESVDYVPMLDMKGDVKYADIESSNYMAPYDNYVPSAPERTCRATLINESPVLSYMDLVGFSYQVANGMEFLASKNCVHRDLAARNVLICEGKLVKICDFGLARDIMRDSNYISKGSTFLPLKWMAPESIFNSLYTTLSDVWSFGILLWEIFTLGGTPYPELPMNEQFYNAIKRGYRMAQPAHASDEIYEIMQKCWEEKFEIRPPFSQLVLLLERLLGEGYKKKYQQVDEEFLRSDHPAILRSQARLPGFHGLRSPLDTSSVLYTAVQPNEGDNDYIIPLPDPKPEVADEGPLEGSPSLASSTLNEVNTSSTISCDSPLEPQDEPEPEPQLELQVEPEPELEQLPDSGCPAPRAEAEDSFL
Experimental: (a) An In Vitro Assay which-Determines the Ability of a Test Compound to Inhibit a Receptor Tyrosine Kinase.
The ability of compounds to inhibit receptor kinase (VEGFR2 and PDGFR-beta) activity was assayed using standard radioisotope assay for kinase. […] The proteins were purified using Ni2+/NTA agarose affinity column to purity
For PDGFR-beta assay, p33 ATP tracers were incubated with purified recombinant PDGFR-beta kinase to monitor the enzyme activity. In this assay, reactions were carried out in the presence of 0.4 mg/ml PDGFR-beta kinase and 200 nM of Abl peptide substrate ([…]). The reaction was carried out at 30° C. for 120 minutes in a final assay condition contained 20 mM Tris-HCl, pH 7.5, 100 mM NaCl, 0.05 mM EDTA, 0.05% NP-40, 1 mM DTT 50% glycerol and 100 μM ATP. An equal volume of 25% TCA was added to stop the reaction and precipitate the labeled peptides. Precipitated proteins were trapped onto glass fiber B filterplates and excess unlabeled p33 ATP was washed off. The plates were allowed to air-dry prior to the addition of 30 uL/well of Packard Microscint 20. The amount of incorporated isotope was measured using a Perkin Elmer TopCount plate reader. Different concentrations of compounds were added to reaction to assess the activity of compounds to inhibit PDGF-beta kinase. IC50 was calculated using Prism software with sigmoidal dose-response curve fitting.

T1 sequence (P10721 544-976): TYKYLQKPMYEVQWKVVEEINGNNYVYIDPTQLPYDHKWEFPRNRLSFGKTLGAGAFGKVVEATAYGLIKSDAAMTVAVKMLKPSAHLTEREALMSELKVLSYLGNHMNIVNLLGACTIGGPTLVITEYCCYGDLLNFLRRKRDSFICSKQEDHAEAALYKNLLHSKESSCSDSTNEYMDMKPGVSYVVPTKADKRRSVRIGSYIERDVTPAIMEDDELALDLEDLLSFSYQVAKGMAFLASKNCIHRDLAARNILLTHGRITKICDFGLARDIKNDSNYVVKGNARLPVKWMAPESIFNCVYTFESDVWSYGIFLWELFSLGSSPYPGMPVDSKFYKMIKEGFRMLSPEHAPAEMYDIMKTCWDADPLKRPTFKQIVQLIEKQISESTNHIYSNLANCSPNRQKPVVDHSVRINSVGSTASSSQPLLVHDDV

IC50 (human c-Kit) [µM]	PDGFRb IC50 (human PDGFR-beta)	IC50 (human PDGFR-beta) [µM]	Compound
< 0.1	Inactive	–	COc1cc2c(Oc3ccc4[nH]c(C)cc4c3F)ncnc2cc1OCCCCCCC(=O)NO [Compound 11, 7-(4-(4-fluoro-2-methyl-1H-indol-5-yloxy)-6-methoxyquinazolin-7-yloxy)-N-hydroxyheptanamide]
0.1 to 1	–	1 to 10	COc1cc2c(Nc3ccc4[nH]c(C)cc4c3F)ncnc2cc1OCCCCCC(=O)NO [Compound 13, 6-(4-(4-fluoro-2-methyl-1H-indol-5-ylamino)-6-methoxyquinazolin-7-yloxy)-N-hydroxyhexanamide]
0.1 to 1	–	> 10	COc1cc2c(Nc3ccc4[nH]c(C)cc4c3F)ncnc2cc1OCCCCCCC(=O)NO [Compound 14, 7-(4-(4-fluoro-2-methyl-1H-indol-5-ylamino)-6-methoxy-quinazolin-7-yloxy)-N-hydroxyheptanamide]
0.1 to 1	–	> 10	Cc1cc2c(F)c(Nc3ncnc4cc(OCCCN5CCCC5)c(OCCCCCCC(=O)NO)cc34)ccc2[nH]1 [Compound 20, 7-(4-(4-Fluoro-2-methyl-1H-indol-5-ylamino)-7-(3-(pyrrolidin-1-yl)propoxy)quinazolin-6-yloxy)-N-hydroxyheptanamide]
